Assay [1] deals with FER (Homo sapiens, UniProt P16591). Kind of assay: Kinome profiling FER. Conditions: read-out: Inhibitory activity FER; for inhibition at 0.1 µM: 100 nM. It counts as biochemical. The procedure: (§1) . The kinome-wide selectivity was determined following the methods previously reported by Mohedas et al., ACS Chem Biol 2013, 8, 1291-1302 and Sanvitale et al., PLoS One 2013, 8, e62721.

The target in assay [2] is T1, IKK-β (Homo sapiens, UniProt O14920).
T1 sequence (O14920 1-756): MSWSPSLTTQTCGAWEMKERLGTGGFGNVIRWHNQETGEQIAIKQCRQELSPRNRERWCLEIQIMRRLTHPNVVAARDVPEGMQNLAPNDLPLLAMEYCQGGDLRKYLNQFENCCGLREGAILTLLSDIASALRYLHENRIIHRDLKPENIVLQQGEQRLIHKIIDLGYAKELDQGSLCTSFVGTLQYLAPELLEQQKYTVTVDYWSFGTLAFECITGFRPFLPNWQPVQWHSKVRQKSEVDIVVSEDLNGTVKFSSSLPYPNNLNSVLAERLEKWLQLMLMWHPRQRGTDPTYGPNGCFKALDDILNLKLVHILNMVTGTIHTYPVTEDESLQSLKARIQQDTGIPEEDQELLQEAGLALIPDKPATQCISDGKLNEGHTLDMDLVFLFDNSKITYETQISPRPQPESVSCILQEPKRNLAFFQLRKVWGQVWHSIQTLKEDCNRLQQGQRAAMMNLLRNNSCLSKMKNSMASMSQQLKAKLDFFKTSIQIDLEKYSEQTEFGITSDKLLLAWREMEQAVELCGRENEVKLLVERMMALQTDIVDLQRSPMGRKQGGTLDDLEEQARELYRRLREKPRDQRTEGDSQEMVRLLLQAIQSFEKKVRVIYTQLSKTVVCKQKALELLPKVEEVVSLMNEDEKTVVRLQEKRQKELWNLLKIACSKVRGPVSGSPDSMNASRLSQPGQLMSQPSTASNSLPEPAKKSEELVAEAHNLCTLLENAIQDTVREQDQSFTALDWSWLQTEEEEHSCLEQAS
As to the kind of experiment: Kinome profiling IKK-β. It counts as biochemical. As to conditions: read-out: Inhibitory activity IKK-β; for inhibition at 0.1 µM: 100 nM. As for the experimental part: as §1

For assay [3], the target named is BRK (Homo sapiens, UniProt Q13882). As to the kind of experiment: Kinome profiling BRK. The assay is classed as biochemical. As to conditions: read-out: Inhibitory activity BRK; for inhibition at 0.1 µM: 100 nM. The procedure:
as §1

Assay [4] concerns the target FLT-4 (Homo sapiens, UniProt P35916). Kind of assay: Kinome profiling FLT-4. It counts as biochemical. As to conditions: read-out: Inhibitory activity FLT-4; for inhibition at 0.1 µM: 100 nM. The procedure:
as §1

Assay [5] addresses PIM-1 (Homo sapiens, UniProt P11309). Kind of assay: Kinome profiling PIM-1. The assay is classed as biochemical. Conditions: read-out: Inhibitory activity PIM-1; for inhibition at 0.1 µM: 100 nM. The procedure: as §1
For assay [6], the target named is GSK3α (Homo sapiens, UniProt P49840). As to the kind of experiment: Kinome profiling GSK3α. The assay is classed as biochemical. Conditions: read-out: Inhibitory activity GSK3α; for inhibition at 0.1 µM: 100 nM. As for the experimental part:
as §1

The target in assay [7] is T2, caALK3 (Homo sapiens, UniProt P36894, Q233D).
T2 construct: expressed in transfected cells; host or cells: C2C12 BRE-Luc cells infected with adenovirus (MOI 100)
Kind of assay: Luciferase reporter assay constitutively active ALK3. As to conditions: read-out: Cell Based Assay caALK3 IC50. The text has this: C2Cl2 […] cells stably transfected with BMP responsive element from the Id promoter fused to luciferase reporter gene (BRE-Luc) were generously provided by Dr. Peter ten Dijke (Leiden University Medical Center, NL) following the methods described by Zilberberg et al., BMC cell biology 2007, 8, 41-50. Human embryonic kidney 293T cells stably transfected with the TGF-β responsive element from the PAI-1 promoter fused to luciferase reporter gene (CAGA-Luc) were generously provided by Dr. Howard Weiner (Brigham and Women's Hospital, Boston, Mass.) following the methods described by Oida et al., PloS one 2011, 6, e18365. C2Cl2 Bre-Luc and 293T CAGA-Luc cells were seeded in DMEM supplemented with 2% FBS at 20,000 cells per well in tissue culture treated 96-well plates (Costar® 3610; Corning). The cells were incubated for 1 h (37° C. and 10% CO2) and allowed to settle and attach. Compounds of interest or DMSO were diluted in DMEM and added at final compound concentrations of 1 nM to 10 μM. Cells were then incubated for 30 min. Adenovirus expressing constitutively active BMP and TGF-β type I receptors (Ad.caALK1-5), generously provided by Dr. Akiko Hata (University of to California at San Francisco), were added to achieve a multiplicity of infection (MOI) of 100. Plates were incubated overnight at 37° C. Cell viability was assayed with an MIT (3-(4,5-dimethylthiazol-2-yl)-2,5-diphenyl tetrazolium bromide) colorimetric assay (Promega) per the manufacturer's instructions. Media was discarded, and firefly luciferase activity was measured (Promega) according to manufacturer's protocol. Light output was measured using a Spectramax L luminometer (Molecular Devices) with an integration time of one second per well. Data was normalized to 100% of incremental BRE-Luc activity due to adenoviruses specifying caALK1, 2, or 3, or the incremental CAGA-Luc activity due to adenoviruses specifying caALK4 or 5.
A general note: In a reporter assay the amount or activity of a reporter protein is the signal.

Drawing on US20170190705A1, “Compositions and Methods for Inhibiting BMP” (THE BRIGHAM AND WOMAN'S HOSPITAL, INC., priority 2014, published 2017), this text covers inhibition and IC50 for two compounds.

In general, IC50 refers to the point on the concentration scale where inhibition reaches its midpoint.

Sequence of FLT-4 (P35916 25-1363): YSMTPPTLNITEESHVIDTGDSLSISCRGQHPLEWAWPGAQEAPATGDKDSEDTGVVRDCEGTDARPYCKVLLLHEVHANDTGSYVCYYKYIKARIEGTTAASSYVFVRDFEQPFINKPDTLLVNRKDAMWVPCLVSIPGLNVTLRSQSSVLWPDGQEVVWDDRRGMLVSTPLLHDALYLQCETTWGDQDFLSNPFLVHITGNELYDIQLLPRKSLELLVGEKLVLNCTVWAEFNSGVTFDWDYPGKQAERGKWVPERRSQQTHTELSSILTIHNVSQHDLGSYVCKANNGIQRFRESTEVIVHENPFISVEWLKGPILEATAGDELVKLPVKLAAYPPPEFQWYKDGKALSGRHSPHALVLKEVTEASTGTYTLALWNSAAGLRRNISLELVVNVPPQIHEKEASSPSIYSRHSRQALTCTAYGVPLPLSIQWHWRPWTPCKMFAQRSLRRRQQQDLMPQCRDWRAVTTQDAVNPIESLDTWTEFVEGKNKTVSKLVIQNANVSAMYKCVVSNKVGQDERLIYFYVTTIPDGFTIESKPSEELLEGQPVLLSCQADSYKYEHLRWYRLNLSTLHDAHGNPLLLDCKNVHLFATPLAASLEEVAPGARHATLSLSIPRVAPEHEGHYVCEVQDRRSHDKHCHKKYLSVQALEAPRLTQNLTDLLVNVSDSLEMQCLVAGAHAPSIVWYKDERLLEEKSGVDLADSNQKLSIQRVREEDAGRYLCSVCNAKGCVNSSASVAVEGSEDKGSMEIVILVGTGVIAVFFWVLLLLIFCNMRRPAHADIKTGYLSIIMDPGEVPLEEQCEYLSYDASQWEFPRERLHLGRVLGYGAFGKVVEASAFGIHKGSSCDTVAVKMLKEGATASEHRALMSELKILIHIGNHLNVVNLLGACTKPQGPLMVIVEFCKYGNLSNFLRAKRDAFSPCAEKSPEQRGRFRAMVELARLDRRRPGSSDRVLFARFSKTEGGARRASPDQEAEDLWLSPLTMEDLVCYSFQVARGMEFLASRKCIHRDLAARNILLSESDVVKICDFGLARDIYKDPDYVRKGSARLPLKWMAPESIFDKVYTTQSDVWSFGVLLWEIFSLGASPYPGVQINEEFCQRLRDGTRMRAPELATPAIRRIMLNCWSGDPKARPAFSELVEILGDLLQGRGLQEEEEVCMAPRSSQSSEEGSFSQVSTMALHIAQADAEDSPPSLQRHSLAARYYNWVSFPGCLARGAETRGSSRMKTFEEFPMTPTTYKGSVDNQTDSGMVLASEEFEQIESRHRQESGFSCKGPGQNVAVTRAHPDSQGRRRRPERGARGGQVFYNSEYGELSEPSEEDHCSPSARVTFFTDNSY
Sequence of BRK (Q13882 whole entry): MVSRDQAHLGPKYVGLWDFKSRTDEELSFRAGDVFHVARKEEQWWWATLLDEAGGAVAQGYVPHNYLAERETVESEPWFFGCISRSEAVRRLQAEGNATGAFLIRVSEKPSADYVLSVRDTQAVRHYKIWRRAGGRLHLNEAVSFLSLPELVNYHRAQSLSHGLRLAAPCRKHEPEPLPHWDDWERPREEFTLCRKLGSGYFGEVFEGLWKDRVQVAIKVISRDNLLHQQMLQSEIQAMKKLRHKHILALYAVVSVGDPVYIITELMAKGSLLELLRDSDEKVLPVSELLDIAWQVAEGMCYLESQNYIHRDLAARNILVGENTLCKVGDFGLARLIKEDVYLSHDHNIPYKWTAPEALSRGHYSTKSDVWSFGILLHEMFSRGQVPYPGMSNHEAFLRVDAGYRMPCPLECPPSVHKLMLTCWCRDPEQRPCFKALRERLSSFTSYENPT
Sequence of PIM-1 (P11309 whole entry): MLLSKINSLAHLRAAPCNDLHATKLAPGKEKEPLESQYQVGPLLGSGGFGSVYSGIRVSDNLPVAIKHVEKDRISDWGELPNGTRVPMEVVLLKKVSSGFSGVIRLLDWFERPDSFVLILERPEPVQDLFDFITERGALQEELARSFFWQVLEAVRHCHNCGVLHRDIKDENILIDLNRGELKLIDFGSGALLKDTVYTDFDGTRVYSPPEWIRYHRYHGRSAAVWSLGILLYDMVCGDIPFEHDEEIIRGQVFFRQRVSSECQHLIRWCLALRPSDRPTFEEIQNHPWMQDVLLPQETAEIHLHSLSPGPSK
Sequence of FER (P16591 whole entry): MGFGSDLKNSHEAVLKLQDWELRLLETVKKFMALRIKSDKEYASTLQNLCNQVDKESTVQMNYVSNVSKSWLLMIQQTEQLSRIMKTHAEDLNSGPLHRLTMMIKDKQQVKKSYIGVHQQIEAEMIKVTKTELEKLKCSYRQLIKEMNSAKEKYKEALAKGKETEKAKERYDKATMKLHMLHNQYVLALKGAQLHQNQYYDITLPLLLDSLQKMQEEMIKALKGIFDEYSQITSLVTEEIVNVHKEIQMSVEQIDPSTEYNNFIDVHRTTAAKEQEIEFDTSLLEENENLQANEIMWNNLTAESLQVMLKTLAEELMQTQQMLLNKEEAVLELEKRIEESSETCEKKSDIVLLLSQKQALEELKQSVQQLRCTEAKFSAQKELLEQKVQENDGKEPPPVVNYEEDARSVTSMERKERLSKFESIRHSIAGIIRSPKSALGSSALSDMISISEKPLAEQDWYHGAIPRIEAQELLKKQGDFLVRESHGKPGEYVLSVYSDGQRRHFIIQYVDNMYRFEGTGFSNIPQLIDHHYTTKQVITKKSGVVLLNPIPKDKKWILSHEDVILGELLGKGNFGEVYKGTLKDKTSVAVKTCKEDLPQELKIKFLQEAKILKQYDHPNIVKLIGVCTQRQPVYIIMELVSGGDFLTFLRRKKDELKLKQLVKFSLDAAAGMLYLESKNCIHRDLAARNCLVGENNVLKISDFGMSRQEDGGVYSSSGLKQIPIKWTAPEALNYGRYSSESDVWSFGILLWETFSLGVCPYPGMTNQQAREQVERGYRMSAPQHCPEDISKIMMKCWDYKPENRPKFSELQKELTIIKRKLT
Sequence of GSK3α (P49840 whole entry): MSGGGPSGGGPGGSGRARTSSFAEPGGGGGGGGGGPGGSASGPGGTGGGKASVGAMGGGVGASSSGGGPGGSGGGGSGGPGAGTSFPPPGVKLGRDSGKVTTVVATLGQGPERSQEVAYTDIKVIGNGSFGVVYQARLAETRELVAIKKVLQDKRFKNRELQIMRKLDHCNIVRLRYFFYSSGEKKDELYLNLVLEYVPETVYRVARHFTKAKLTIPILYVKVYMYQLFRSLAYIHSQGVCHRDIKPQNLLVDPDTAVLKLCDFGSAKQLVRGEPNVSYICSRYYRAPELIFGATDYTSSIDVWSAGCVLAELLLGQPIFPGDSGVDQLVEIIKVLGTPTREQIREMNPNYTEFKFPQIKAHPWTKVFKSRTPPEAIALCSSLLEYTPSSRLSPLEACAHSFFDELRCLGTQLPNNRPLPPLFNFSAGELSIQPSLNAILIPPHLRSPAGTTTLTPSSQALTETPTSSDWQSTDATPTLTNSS
T2 sequence (P36894 24-532 Q233D): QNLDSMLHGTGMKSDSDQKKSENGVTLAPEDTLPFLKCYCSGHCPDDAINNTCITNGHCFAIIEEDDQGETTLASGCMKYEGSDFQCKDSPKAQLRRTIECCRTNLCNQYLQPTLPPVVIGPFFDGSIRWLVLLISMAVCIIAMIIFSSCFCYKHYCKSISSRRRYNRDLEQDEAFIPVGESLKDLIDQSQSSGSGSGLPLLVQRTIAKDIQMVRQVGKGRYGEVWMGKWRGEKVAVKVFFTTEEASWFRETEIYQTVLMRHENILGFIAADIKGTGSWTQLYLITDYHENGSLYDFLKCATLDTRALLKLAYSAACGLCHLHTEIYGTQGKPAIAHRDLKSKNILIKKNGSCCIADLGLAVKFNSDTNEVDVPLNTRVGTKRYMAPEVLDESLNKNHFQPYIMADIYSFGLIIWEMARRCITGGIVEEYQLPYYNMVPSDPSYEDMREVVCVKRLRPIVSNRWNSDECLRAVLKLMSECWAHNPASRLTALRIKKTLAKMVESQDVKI

As for `COc1cc(-c2cc(-c3ccc(N4CCNCC4)cc3)cnc2C)cc(OC)c1OC` [Compound 10, 1-(4-(6-methyl-5-(3,4,5-trimethoxyphenyl)pyridin-3-yl)phenyl)piperazine], the inhibition at 0.1 µM was 3% in assay [1]; 2% in assay [2]; 7% in assay [3]; 3% in assay [4]; 1% in assay [5]; 1% in assay [6]. Also, the inhibition at 1 µM in assay [1] was found to be 3%; in assay [2], 2%; in assay [3], 36%; in assay [4], 9%; in assay [5], 0%; in assay [6], 1%. In addition, the IC50 in assay [7] turned out to be 382 nM.

With `COc1cc(-c2cc(-c3ccc(N4CCNCC4)cc3)cnc2N)cc(OC)c1OC` [Compound 15, 5-(4-(piperazin-1-yl)phenyl)-3-(3,4,5-trimethoxyphenyl)pyridin-2-amine], the inhibition at 0.1 µM in assay [1] was 0%; in assay [2] it was 1%; in assay [3] it was 43%; in assay [4], 1%; in assay [5], 0%; in assay [6], 1%. Besides, the inhibition at 1 µM was 6% in assay [1]; 3% in assay [2]; 92% in assay [3]; 4% in assay [4]; -1% in assay [5]; 0% in assay [6]. Moreover, the IC50 in assay [7] stood at 8 nM.
